Data set [1] concerns the target T1, mTEAD4 (Mus musculus, UniProt Q62296).
T1 construct: Mouse TEAD4(210–427) cDNA fused with a 6x His-tag and a 3C protease cleavage site; 6x His-tag; 3C protease cleavage site; made in house; host or cells: E. coli BL21 DE3 RIL(K+)
Put plainly: SPR binding to immobilised mTEAD4. The settings on record: mTEAD4 amine-coupled on CM5, multi-cycle, steady-state fit 1:1 model, 10 mM HEPES 150 mM NaCl 0.05% Tween-20 pH 7.4, 0.3% DMSO, 20 °C, Fig. 1 values n = 1 replicate. In a few lines:
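Proteins amine-coupled (NHS/EDC) to CM5 chips from 10 mM MES pH 6.4; running buffer 10 mM HEPES, 150 mM NaCl, 0.05% Tween-20, pH 7.4, 20 °C, 30 µL min^−1. Multi-cycle kinetics: seven threefold analyte dilutions from 30 µM, 45 s contact, 6-min dissociation, reference-surface subtracted.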

Data set [2] in a line: Circular dichroism, calculated helicity. The settings on record: 10 mM sodium phosphate pH 7.4, 75 to 10 µM peptide, CDNN software PEPFIT mode, unbound peptide. Type of data set: physicochemical. On the procedure:
The spectra were obtained using a Jasco J-715 and a cuvette 0.1 mm. Represented CD spectra are an average of five measurements done between λ = 190 and 300 nm with a continuous scan mode, 50 nm min^−1 scan speed and data point every 1 nm. The α-helicity was calculated using CDNN software using the PEPFIT mode[42].

The target in data set [3] is T2, GST-hTEAD1 / biotin-VGL4 (Homo sapiens, UniProt P28347).
T2 construct: CDNA of hTEAD1(209–426) fused with an N-terminal GST tag; made in house; host or cells: Escherichia coli BL21 DE3 RIL(K+); bait peptide synthetic
T2 sequence (P28347 209-426): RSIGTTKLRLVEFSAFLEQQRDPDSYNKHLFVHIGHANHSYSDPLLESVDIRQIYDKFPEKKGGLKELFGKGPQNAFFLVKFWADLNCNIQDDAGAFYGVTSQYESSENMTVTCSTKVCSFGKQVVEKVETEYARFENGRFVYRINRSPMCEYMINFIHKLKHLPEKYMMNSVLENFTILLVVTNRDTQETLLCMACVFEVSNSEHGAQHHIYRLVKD
Put plainly: Competition pull-down of GST-hTEAD1 with immobilised biotin-VGL4. The format is biochemical. The settings on record: GST-hTEAD1 1 µM; for Competition with TEAD–VGL4 complex formation (pull-down): peptide 50 and 200 µM, biotin-VGL4 on streptavidin beads, 2.5 h, SDS-PAGE, n = 1. The procedure:
Beads were then extensively washed with the incubation buffer followed by protein elution after boiling the beads at 95 °C for 10 min in 25 µL of SDS loading buffer. SDS PAGE was performed using standard methods and the gel was visualized after Coomassie staining with a Li-COR Fc Imager.

Data set [4] can be described thus: Peptide stability in cell culture media with 10% FBS. The settings on record: 30 µM peptide, MEM + 10% FBS, 37 °C, HPLC/MS, duplicates.
Protocol: A total of 30 µM of the peptide was incubated in MEM media supplemented with 10% FBS at 37 °C. At the indicated time point, 25 µL of the sample was withdrawn, mixed with an equal volume of the internal standard solution (6 µM Fmoc-Arg(Pbf)-OH), kept on ice for 15 min followed by centrifugation (16×g) at 4 °C for 5 min. The supernatant was analysed with LC-MS (UltiMate 3000 UHPLC Systems) using C18 reverse phase column (Nucleodur, 1.8 µm C18 gravity, 2 mm) and Thermo Orbitrap Velos Pro ETD. The peptide absorbance (λ = 280 nm) or the mass spectrometry peak intensity relative to that of the internal standard peak intensity was graphed. The stability experiments were performed in duplicates.
Data set [5] concerns TEAD target genes. Put plainly: qPCR analysis of TEAD target genes in cardiomyocytes from human ES cell line (H7). The format is cell-based. The settings on record: c = 30 µM, t = 18 h.
Data set [6] relates to YAP. Nature of the data set: YAP localization assay in juvenile rat cardiomyocytes. The format is cell-based. The settings on record: for YAP ratio (nucleus/cytoplasm), Mean: 4 h, primary juvenile rat cardiomyocytes, DMSO mean 2.99; for YAP ratio in cardiomyocytes (nucleus/cytoplasm): fluorescence immunocytochemistry, 8 Hours, mean of n = 3. On the procedure:
We analysed the YAP sub-cellular distribution in cardiomyocytes by means of fluorescence intensity after immunocytochemistry. After 3 days in culture, the cardiac cells were treated and fixed 4, 8, and 24 h after treatment. […] Secondary antibodies were used to detect the primary antibodies (goat anti-mouse Alexa Fluor 568, A-11004, dilution 1:1000 and goat anti-rabbit AlexaFluor 488, A-11008, dilution 1:1000, both from Thermo Fisher Scientific) and nuclei were counterstained with DAPI (2-(4-amidinophenyl)-1H-indole-6-carboxamidine, dilution 1:1000, Roth). The samples were then imaged and analysed on an ImageXpress XL automated microscope (Molecular Devices). […] Data are depicted as means ± SEM.

Data set [7] concerns the target T3, hTEAD1–VGL4 complex (Homo sapiens, UniProt P28347).
T3 construct: CDNA of hTEAD1(209–426) fused with an N-terminal GST tag; GST (N); 6x His-tag (N); 3C protease cleavage site (N); made in house; host or cells: Escherichia coli BL21 DE3 RIL(K+); tracer peptide synthetic
Nature of the data set: Competitive FP, displacement of labelled VGL4(203–256) from hTEAD1. Type of data set: binding. On the procedure: Next, the ability of the peptides in our panel to inhibit the TEAD–VGL4 interaction was investigated. For this purpose, a competition pull-down experiment was performed using biotinylated VGL4(203–256) (b-1) as the bait for GST-tagged hTEAD1. b-1 was immobilized on streptavidin magnetic beads and hTEAD1 pull-down was detected using gel electrophoresis (Fig. 3d). […] To evaluate how inhibitor binding discriminates between these two binding partners, we performed a competitive binding assay based on FP.
Supplementary Figure 15│ Binding studies of hTEAD1 by fluorescence polarization. Dissociation constants were measured […]
The fluorescent cofactor (10 nM) are directly titrated with hTEAD1. After 1 hour of incubation, fluorescence polarization was measured, and a non-linear fitting was applied to the curves to determine the […]
In the competitive binding assay, first a complex with the fluorescent cofactor (10 nM) and hTEAD1 (100 nM) was formed and after 1 hour of incubation, the unlabelled peptide was titrated. After 1 hour of incubation, fluorescence polarization was measured, and a non-linear fitting was applied to the curves to determine the half maximal inhibitory concentration. (c) Competition assay […]
Mean ± SEM of triplicates were plotted for all data. Source data are provided as a Source Data file.
(1 picture or pasted object on this page, not shown here)

Bridge positions count the residues as written; N and C are the ends. Square brackets hold non-standard residues; d marks the D form. Peptide text beside a SMILES is read from it. AEEA = NCCOCCOCC(=O)O

T1 sequence (Q62296 210-427): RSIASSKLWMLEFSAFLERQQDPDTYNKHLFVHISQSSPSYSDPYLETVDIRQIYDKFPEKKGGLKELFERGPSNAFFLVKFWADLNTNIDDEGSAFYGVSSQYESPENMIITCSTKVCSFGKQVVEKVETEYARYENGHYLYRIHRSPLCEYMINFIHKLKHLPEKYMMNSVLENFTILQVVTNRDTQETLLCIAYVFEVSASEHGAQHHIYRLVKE
T3 sequence (P28347 209-426, one chain of several): as the sequence (P28347 209-426) above

In the case of `CC[C@H](C)[C@@H]1NC(=O)[C@H](CCC(N)=O)NC(=O)[C@H](CC(C)C)NC(=O)[C@H](Cc2c[nH]c3ccccc23)NC(=O)[C@H]([C@@H](C)O)NC(=O)[C@H](CC(=O)O)NC(=O)CNC(=O)[C@H](CC(C)C)NC(=O)[C@H](C)NC(=O)[C@H](CCCCN)NC(=O)[C@H](C)NC(=O)[C@H](Cc2ccccc2)NC(=O)[C@H](Cc2c[nH]cn2)NC(=O)[C@H](CC(=O)O)NC(=O)[C@@H](NC(=O)[C@@H](NC(=O)[C@H](CO)NC(C)=O)C(C)C)CCC(=O)NCCCC[C@@H](C(=O)N[C@@H](C)C(=O)N[C@@H](C)C(N)=O)NC1=O` [4E] (Ac-SVEDHFAKALGDTWLQIKAA-NH2; lactam 3-18), the Kd in data set [1] was 1200 nM. The “Helicity (CD)” value in data set [2] is given as 23%. In addition, the “Competition with TEAD–VGL4 complex formation (pull-down)” value in data set [3] is recorded as “compete with TEAD–VGL4 complex formation”.

In data set [1], `CC[C@H](C)[C@@H]1NC(=O)[C@H](CCC(N)=O)NC(=O)[C@H](CC(C)C)NC(=O)[C@H](Cc2c[nH]c3ccccc23)NC(=O)[C@H]([C@@H](C)O)NC(=O)[C@H](CC(=O)O)NC(=O)CNC(=O)[C@H](CC(C)C)NC(=O)[C@H](C)NC(=O)[C@H](CCCCN)NC(=O)[C@H](C)NC(=O)[C@H](Cc2ccccc2)NC(=O)[C@H](Cc2c[nH]cn2)NC(=O)[C@H](CC(=O)O)NC(=O)[C@@H](NC(=O)[C@@H](NC(=O)[C@H](CO)NC(=O)COCCOCCNC(=O)[C@H](CCC(N)=O)NC(=O)[C@@H]2CCCN2C(=O)[C@H](CCCNC(=N)N)NC(=O)[C@H](CCCNC(=N)N)NC(=O)[C@H](CCCNC(=N)N)NC(=O)[C@H](CCC(N)=O)NC(=O)[C@H](CCCNC(=N)N)NC(=O)[C@H](CCCNC(=N)N)NC(=O)[C@H](CCCCN)NC(=O)[C@H](CCCCN)NC(=O)[C@H](CCCNC(=N)N)NC(=O)CNC(C)=O)C(C)C)CCC(=O)NCCCC[C@@H](C(=O)N[C@@H](C)C(=O)N[C@@H](C)C(N)=O)NC1=O` [compound 7] (Ac-GRKKRRQRRRPQ[AEEA]SVEDHFAKALGDTWLQIKAA-NH2; lactam 16-31) registered a Kd of 1500 ± 1000 nM. The “peptide intact after 24 h” value in data set [4] is “about 80%”. The “Effect on expression of TEAD target genes” value in data set [5] (qPCR) is “increased levels of the cell cycle genes CYR61, CTGF, ANKRD1, and SEPINE1”. In addition, the “RQ (relative target quantity)” value is reported as 4.731 in data set [5] (target gene ANKRD1, RT-qPCR); 1.987 in data set [5] (target gene CTGF, RT-qPCR); 3.964 in data set [5] (target gene CYR61, RT-qPCR); 3.52 in data set [5] (target gene SERPINE1, RT-qPCR). The “YAP ratio (nucleus/cytoplasm), Mean” value in data set [6] (5 µM) turned out to be 3.475; in data set [6] (5 µM, listed as peptide 7), 3.48; in data set [6] (10 µM) it was 5.895; in data set [6] (10 µM, listed as peptide 7), 5.89. In addition, the “YAP ratio in cardiomyocytes (nucleus/cytoplasm)” value in data set [6] (5 µM of 7) was found to be 2.607; in data set [6] (10 µM of 7), 3.272. In addition, in data set [6] (juvenile rat cardiomyocytes, 4 h treatment, vs vehicle control), the “Effect on sub-cellular distribution of YAP” value was “increased nuclear accumulation of YAP”. Besides, the “required concentration for VGL4 competition in the homogeneous FP-based competition assay” value in data set [7] (hTEAD1) is given as “ca. 10 µM”. In data set [7] (labelled VGL4(203–256) 10 nM + hTEAD1 100 nM pre-incubated 1 h, unlabelled peptide titrated, 1 h, triplicates, read-out: IC50, inhibition of hTEAD1–VGL4 complex), the IC50 amounted to 5.46 ± 0.253 µM. Also, the “required concentration for VGL4 competition in the pull-down assay” value in data set [3] (immobilised biotin-VGL4, 2.5 h) is reported as “ca. 100 µM”. In data set [3], the “Competition with TEAD–VGL4 complex formation (pull-down)” value is reported as “compete with TEAD–VGL4 complex formation”.

These data come from paper PMC7591920, “A protein tertiary structure mimetic modulator of the Hippo signalling pathway” (Nature Communications, 2020).
